Experimental data reported in patent US9827228B2, “Opioid receptor modulators and use thereof” (priority 2015, dated 2017).
Where two headings read alike, the source gives them in different places.

Legend:
hMOR = molecular target: T1, hMOR (Homo sapiens, UniProt P35372); experiment: cell-based; assay type: cell-based; conditions: for AUC: AUC of [Ca2+]i fluorescence
T1 construct: host or cells: CHO-K1
Protocol: Chinese hamster ovary (CHO)-K1 cells expressing hMOR and Gα15 (CHO-K1/MOR/Gα15) were cultured in F12 medium (GIBCO) supplemented with 10 μg/mL Hygromycin B (Invivogen), 20 μg/mL Zeocin (Invivogen) and P/S/F (100 units/mL penicillin, 100 μg/mL streptomycin, 10% fetal bovine serum). The cultures were incubated at 37° C. in a humidified 5% CO2 incubator.
One day prior to running the assay, CORNING® black 96-well assay plates having a clear flat bottom were coated with a 0.1 mg/mL Poly-L-Lysine solution. CHO-K1/MOR/Gα15 cells were suspended in F12 medium and plated at a density of about 8×10^4 cells/well in 200 μL medium. Cells were incubated under a humidified atmosphere of 10% CO2 at 37° C. overnight to reach an 80-90% confluent cell monolayer before the assay. On the day of the assay, 150 μL medium was removed from each well of the plates. To each well were added FLIPR® calcium assay reagents (Molecular Devices Corporation, Sunnyvale, Calif., USA; 50 μL) dissolved in 1× assay buffer (HBSS: KCl 5 mM, KH2PO4 0.3 mM, NaCl 138 mM, NaHCO3 4 mM, Na2HPO4 0.3 mM, d-glucose 5.6 mM, with additional 20 mM HEPES and […], pH 7.4) and 2.5 mM probenecid. After incubation at 37° C. for 1 hour, a test compound, alone or together with naloxone (a MOR antagonist), was also added to each well. Using a FlexStationlll instrument (Molecular Devices Corp.), increments of the [Ca^2+]i fluorescence after robotic injection of the cell suspension were monitored at 1.52 s intervals using the excitation wavelength of 485 nm and the emission wavelength of 525 nm. The [Ca^2+]i fluorescence was measured up to 90 s after the injection. The fluorescence intensity from 6 to 12 wells of cells were averaged and the relative amount of [Ca^2+]i release was determined by integrating the AUC of the [Ca^2+]i fluorescence averages.
A CHO-K1 cell line expressing MOR and Gα15 (GenScript) was used to set up a sensitive high-throughput screen (HTS) system. […] The HTS was performed in the absence or presence of naloxone (an opioid antagonist; 20 nM), to identify AAMs.

B6 mice = experiment: Tail-flick test; assay type: in vivo; conditions: for AUC of inhibition of the tail-flick response: 0-180 min
Protocol: Male wild-type B6 mice (25-30 g) were kept in a temperature-controlled animal room with a 12-h light/dark cycle. The protocol was approved by the Institutional Animal Care and Use Committee of the National Health Research Institutes, Taiwan. Animal experiments were carried out in accordance with the Policies on the Use of Animals in Neuroscience Research and the ethical guidelines for investigations of experimental pain in conscious animals, International Association for the Study of Pain.
Tail-Flick Analgesia Meter (Columbia Instruments, Trussville, Ala., USA) was used to measure the tail-flick latencies of mice. The cut-off time for each measurement was 10 s to avoid tissue damage. Basal latencies (in seconds) were recorded before treatment and test latencies (also in seconds) were recorded at 30, 60, 90, 120, and 180 minutes after an intravenous injection of compounds. Time-response curves from compounds at various concentrations were obtained for anti-nociceptive effects occurring between 0 and 180 minutes. The AUC values corresponding to the various concentrations were also calculated. The anti-nociceptive effects were quantitatively calculated by substracting the basal latency from the test latency. An ED50 value was determined by an up-and-down method reported in Crocker et al., Pharmacol Biochem Behav, 1984, 21, 133-136.
To investigate whether AAMs could change the innate character of MOR to be activated by naloxone in vivo, tail-flick tests after acute treatment were performed. […] Unexpectedly, in mice injected only with the vehicle not containing naloxone, no anti-nociception effect was observed even with the highest dose of Compound 1 at 100 mg/kg. These in vivo results again indicate that Compound 1 served as an AAM of the MOR.

[1] = combined with naloxone, CHO-K1/MOR/Gα15 cells

T1 sequence (P35372 whole entry): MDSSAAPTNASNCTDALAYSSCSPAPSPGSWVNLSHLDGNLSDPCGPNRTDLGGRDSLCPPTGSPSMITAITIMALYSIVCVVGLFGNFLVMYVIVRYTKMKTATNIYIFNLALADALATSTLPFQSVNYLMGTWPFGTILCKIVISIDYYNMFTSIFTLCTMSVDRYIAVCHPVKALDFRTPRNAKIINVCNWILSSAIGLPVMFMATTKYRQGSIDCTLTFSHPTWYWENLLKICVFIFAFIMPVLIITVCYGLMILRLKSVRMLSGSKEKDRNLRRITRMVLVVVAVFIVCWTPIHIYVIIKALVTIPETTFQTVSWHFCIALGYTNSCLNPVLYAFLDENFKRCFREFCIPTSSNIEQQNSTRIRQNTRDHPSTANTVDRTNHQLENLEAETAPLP

SMILES	AUC (hMOR; [1])	EC50 (hMOR; EC50, combined with naloxone)	EC50 (hMOR; EC50, combined with naloxone (20 nM))	EC50 (hMOR; EC50, combined with naloxone, CHO-K1/MOR/Gα15 cells)	effect on Emax and potency of naloxone (hMOR; concentration-response curves of naloxone at several concentrations of Compound 1)	calcium release (hMOR; in the presence of naloxone)	PAM or NAM effect: Emax and potency of morphine (hMOR; morphine with Compound 1 at 30, 10, or 3.3 μM)	anti-nociceptive effect (B6 mice; Compound 1 alone at 25, 50, or 100 mg/kg (i.v.), B6 mice)	AUC of inhibition of the tail-flick response (B6 mice; Compound 1 at 25 mg/kg (i.v.) with naloxone at 10 mg/kg)	AUC of inhibition of the tail-flick response (B6 mice; Compound 1 at 50 mg/kg (i.v.) with naloxone at 10 mg/kg)	AUC of inhibition of the tail-flick response (B6 mice; Compound 1 at 100 mg/kg (i.v.) with naloxone at 10 mg/kg)	EC50 (hMOR; combined with naloxone, CHO-K1/MOR/Gα15 cells, read-out: EC50)	ED50 (B6 mice; Mus musculus, mice injected with Compound 1 at 100 mg/kg, read-out: ED50 in inhibiting the tail-flick response)
CCc1ccccc1Nc1nc(-c2sc(C)nc2C)cs1 [Compound 1, N-(2-Ethylphenyl)-2′,4′-dimethyl-4,5′-bi-1,3-thiazol-2-amine]	+ (+: >5000)	< 10 µM	4 µM	3 to 10 µM	both Emax and potency of naloxone were altered	significant calcium release	neither Emax nor potency of morphine was significantly altered	did not produce any anti-nociceptive effect	114.8±26 min×s	159.8±60 min×s	384±87 min×s		
CCc1ccccc1Nc1nc(C)cs1 [Compound 132, N-(2-Ethylphenyl)-4-methyl-1,3-thiazol-2-amine]	− (−: <5000)											> 10 µM	
C=CCN1CC[C@]23c4c5ccc(O)c4O[C@H]2C(=O)CC[C@@]3(O)[C@H]1C5 [naloxone, reference compound]													17.5 ± 4 mg/kg
